Experimental data taken from publication PMC7923178, “Binding of Amyloid β(1–42)-Calmodulin Complexes to Plasma Membrane Lipid Rafts in Cerebellar Granule Neurons Alters Resting Cytosolic Calcium Homeostasis” (International Journal of Molecular Sciences, 2021).

How the values were obtained:
[1] = system: L-type calcium channels (LTCCs); experiment: LTCC contribution to resting cytosolic calcium (nifedipine-sensitive Fura-2 ratio)
mature CGN [2] = experiment: Resting cytosolic calcium, Fura-2 ratio (340/380) imaging; type: cell-based, rat; settings: 2 μM, 2–5 h incubation; MLocke's K25 medium; control 160 ± 30 nM
neurons = settings: small oligomeric states of the peptide; cited from earlier work
calmodulin (CaM) [3] = experiment: Aβ(1–42) binding capacity of CaM in CGN, from western blot quantification of CaM; parameters: species or system rat; settings: per Petri plate with […] 10^6 CGN cells (56 ± 6 picomoles CaM per plate); Aβ(1–42) largely dimers
[4] = biological target: purified calmodulin (CaM); settings: previous work, read-out: dissociation constant of the complex with purified CaM; cited from earlier work
Description: Lipid rafts are a primary target in studies of amyloid β (Aβ) cytotoxicity in neurons. Exogenous Aβ peptides bind to lipid rafts, which in turn play a key role in Aβ uptake, leading to the formation of neurotoxic intracellular Aβ aggregates. On the other hand, dysregulation of intracellular calcium homeostasis in neurons has been observed in Alzheimer’s disease (AD). […] In this work, to experim ... || Dysregulation of intracellular calcium homeostasis in neurons is a common metabolic feature in both sporadic and familial forms of AD, which by itself can account for enhanced intraneuronal Aβ production and tau hyperphosphorylation potentiation. […] The ... || (+ 1 further places)

mature CGN [5] = experiment: Internalization of Aβ(1–42) in mature CGN by fluorescence microscopy; settings: 2 h incubation with 2 µM Aβ in extracellular medium (1.8 μM Aβ(1–42) plus 0.2 μM HiLyte-Fluor555 derivative), 37 °C, 5% CO2, assuming equal internalization rate, 102 cells
calmodulin (CaM) [6] = experiment: Co-immunoprecipitation of CaM with anti-Aβ antibody in CGN lysates; type: binding, rat; settings: CGN lysates treated with 10 mM methyl-β-cyclodextrin 30 min, western blot

In the case of `COC(=O)C1=C(C)NC(C)=C(C(=O)OC)C1c1ccccc1[N+](=O)[O-]` [nifedipine, Nifedipine], the “difference between the ratio 340/380 in the absence and presence of nifedipine” value ([1]; CGN non-treated with amyloid β(1–42), nifedipine 2 μM or 10 µM) is reported as 0.64 and the “blockade of Ca2+ entry in the soma” value ([1]; nifedipine 10 µM, untreated and Aβ-treated cells) is reported as “totally blocks”.

In the case of “Aβ(1–42): Unlabeled amyloid β(1–42) peptide synthesized and supplied by StabVida”, the “[Ca^2+]i” value (mature CGN [2]) is reported as 71 ± 7 nM, the “inhibition of LTCC activity” value ([1]; 2 µM (monomers) in medium, 2 h incubation of mature CGN) is reported as “about 50%” and the IC50 ([1]; read-out: concentration of internalized Aβ(1–42) dimers that inhibited by 50% the LTCC's activity, internalized dimers after 2 h with 2 µM monomers) is reported as under 100 nM. The “half-time of internalization in neurons” value (neurons) was 12 to 14 h, the “Aβ(1–42) that can be bound by CaM in CGN” value (calmodulin (CaM) [3]) was “up to 120 ± 13 picomoles of Aβ(1–42) /2.5 × 10^6 cells” and the Kd [4] was about 1 nM. The “intracellular (internalized) concentration of Aβ monomers” value (mature CGN [5]) was 193 ± 21 nM and the “co-immunoprecipitation of CaM with anti-Aβ(1–42) antibody” value (calmodulin (CaM) [6]) was “co-immunoprecipitation of CaM with the anti-Aβ(1–42) antibody”.

For “Aβ(25–35): amyloid β peptide fragment 25–35, cited from previous work (GSNKGAIIGLM; Amyloid-beta protein 42; UniProt P05067 696-706, looked up, fragment)”, the Kd [4] is listed as about 1 nM.
